Data set [1] relates to Xenopus embryos. In short, it runs like this: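 Stage 31 (37 hpf) Xenopus embryos, five per well, exposed to 20 µM compound in 1% DMSO at 23 °C for 4 days. Edema, lethality and other external phenotypes were scored daily by two investigators at stages 39, 41, 45 and 47.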
The subject of data set [2] is LEC. Nature of the data set: cells. The note with it: Homo sapiens; for activity at 1 µM: 1 μM in 0.1% DMSO. The class given is cell-based, human. In short, it runs like this:
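HUVEC and LEC in EBM with 20% FBS, hydrocortisone and dibutyryl-cAMP, up to eleven passages, treated overnight at 37 °C with compound at 1 μM in 0.1% DMSO, then fixed in 4% paraformaldehyde. Read-out: total tube length (μm) per area over three hotspot images per well, triplicate wells.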

Data set [3] deals with HUVEC. Nature of the data set: HUVEC cell proliferation assay. Format: cell-based, human. The note with it: Homo sapiens, HUVEC, 48 h, 10 μM in 0.1% DMSO, 48 hours; read-out: HUVEC proliferation. A digest of the protocol:
(§1)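 HUVEC and LEC in EBM with 20% FBS, hydrocortisone and dibutyryl-cAMP were treated with compound at 10 μM in 0.1% DMSO for 48 hours. Viable cells read by fluorescence, in five replicates.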

The subject of data set [4] is LEC. The data set can be described thus: LEC cell proliferation assay. The note with it: Homo sapiens, 48 h, 10 μM in 0.1% DMSO, 48 hours; read-out: LEC proliferation. The class given is cell-based, human. In short, it runs like this:
as §1

For data set [5], the system named is VEGFA-induced dermal neovascularization. The data set can be described thus: Matrigel plug implantation assay (VEGFA-induced angiogenesis and lymphatic vessel enlargement). Format: in vivo, mouse. Conditions: mice, 3 mg/kg/day orally, 6 days. How it is done: The mouse studies were conducted under protocols approved by the Veterinary Office of the Canton of Zurich, Switzerland (permit #123/2005). Nine week-old female wild-type FVB mice (Charles River) were used for the experiments (n=6 per group). Prior to Matrigel implantation, the mice were anesthetized by intraperitoneal injection of 200 μl of Dormitor (20 μg/ml medetomidine; Pfizer) and Narketan 10 (8 mg/ml ketamine; Vétoquinol). The left hip of the animals were shaved and subsequently Matrigel was implanted by intradermal injection of 100 μl of unpolymerized growth factor-reduced Matrigel (BD Biosciences) containing 0.5 mg/ml recombinant human VEGFA (#0081109; National Cancer Institute, USA). The mice were treated orally with either 200 μl PEG-400 (Fluka; pH adjusted to 5.2; control group) or with 200 μl PEG-400 containing […] naphthyridine (3 mg/kg/day). Another control group of mice received Matrigel without VEGFA and was treated with 200 μl PEG-400. The treatment was given once daily for six days. Weight and appearance of animals was monitored daily. On the 7th day, the Matrigel implants were removed from the euthanized mice for immunocytochemical examination. The Matrigel implants were frozen in Tissue-Tek O.C.T. compound (Sakura Finetek), sectioned, and processed as described previously (Kajiya et al., 2005). In brief, 6-μm frozen sections were fixed in −20° C. acetone for two minutes and in cold 80% methanol for five minutes, followed by incubation with antibodies against the lymphatic-specific marker LYVE1 (1:1,000; Millipore) and against the pan-endothelial marker […] (anti-mouse; 1:50; BD Biosciences). Corresponding secondary antibodies were labeled with Alexa 488 or Alexa 594 (Invitrogen). Nuclei were counterstained with 20 μg/ml Hoechst 33342 (Invitrogen). Sections were examined under an Axioskop 2 mot plus microscope and digital images were taken using an AxioCam MRc camera (Carl Zeiss). Three pictures each were taken of vascularized areas around the Matrigel implants (maximal distance from the implant: 500 μm). The vessel density, average vessel size and the average tissue area occupied by vessels were determined in CD31/LYVE1 stained sections using the IPLab software (BD Biosciences) as described (Kajiya et al., 2005).
The adenosine A1 receptor antagonist naphthyridine was identified as a novel inhibitor of lymphatic and blood vessel formation in Xenopus tadpoles and in vitro cellular assays, where it acted anti-mitogenic and impaired endothelial tube formation. […] It can be concluded that the ability of naphthyridine to inhibit lymph and blood vessel angiogenesis is conserved between Xenopus and mammals.

Entries after “also recorded” stand apart in the source; their conditions may differ. Read-outs that look alike come from different tables or passages of the source.

As for `Oc1cc(-c2ccccc2)nc2nc(Cl)ccc12` [7-Chloro-4-hydroxy-2-phenyl-1,8-naphthyridine], the “Lethality (NF)” value in data set [1] (compounds causing edema, 20 μM, 1% DMSO, treatment from stage 31, scored to stage 47) was determined as 39 NF. The “Type of edema Pericordial” value in data set [1] (embryonic stage) was 39 embryonic stages according to Nieuwkoop and Faber (NF). Besides, the Lethality in data set [1] (embryonic stage, — = no stage of lethality given) is 39 embryonic stages according to Nieuwkoop and Faber (NF). Further, the activity at 1 µM in data set [2] (overnight, read-out: LEC tube formation) lay within 50 to 85%. For the same compound, in data set [2] (read-out: LEC tube formation (tube length)), the activity at 1 µM was 50 to 85%. For the same compound, the IC50 (as a rule, the midpoint of a concentration-inhibition curve) in data set [2] (doses 0.2-2 μM, data not shown, read-out: IC50 of LEC tube formation) amounted to 1300 nM. Besides, the activity at 10 µM in data set [3] lay in the range of 42 to 48%. Also, the activity at 10 µM in data set [4] was in the range of 42 to 48%. In data set [5], the “density of lymphatic vessels” value is on record as “unchanged”, the “number of VEGFA-induced blood vessels” value stood at 36.49±1.49 and the “tissue area covered by lymphatic vessels surrounding VEGFA containing Matrigels” value came to 0.89±0.18%. Moreover, in data set [5] (3 mg/kg/day), the lymphatic vessel enlargement result is given as “potently inhibited; also recorded: reduction” and the “tissue area covered by blood vessels” value is “reduction; also recorded: reduced”.

(Values after US9945845B2, “Methods of screening using amphibians” (priority 2009, dated 2018).)
